Assay results published in patent US20250161329A1, “USE OF UV FILTERS FOR THE TREATMENT OF ACNE” (DSM IP ASSETS B.V., priority 2022, published 2025).

Key:
[1] = test system: Cutibacterium acnes ATCC 11827; experiment: In vitro UV model, survival of C. acnes after UV irradiation (96-well liquid model, plate counting); type: cell-based; conditions: for C. acnes relative protection by the UV filter(s) vs. vehicle control / C. acnes survival: UV 3 SED (UVA+UVB 30 mJ/cm^2), after 4 h, sample at 20% v/v; for C. acnes relative protection by the UV filter(s) vs. vehicle control: (sample survival - vehicle survival)/vehicle survival; for C. acnes survival: compared to untreated and non-irradiated control
Experimental: Accordingly, the inventors developed a targeted in vitro liquid model in 96-well microplate format to screen for UV protective actives (“UV filters”) on bacterial survival. The effects of selected UV irradiation conditions tested on microbial population of C. acnes and the commensal reference strain of Staphylococcus epidermidis in the presence of various UV filters and combinations thereof were evaluated with the evolution of the residual microbial population after 4 h. The inhibition of bacterial growth, as consequence of UV irradiation, was compared to that of the same strain without UV irradiation and was expressed in percentage of survival (%). The microbial strains used in this study are listed below and their cultures are reconstituted according to the direction of the supplier collection center of the reference strain, (ATCC American Type Culture Collection, USA): • Cutibacterium acnes ATCC 11827 • Staphylococcus epidermidis ATCC 12228 The 96-well plate was filled with the recommended culture media (140 μL) and a calibrated inoculum (20 μL) of each bacterial strain was added to reach […] colony forming units per milliliter (cfu/mL) final concentration. After contamination, the sample was added (40 μL; 20% v/v) in triplicate and was thoroughly mixed to ensure a homogeneous distribution. Then, the plate was submitted to UV stress through an UV irradiator system (BioSun, Vilber Lourmat, France) according to the UV doses presented Table 1 below. The specific UV dose selected was between 10 and 49% survival of the microbial population. The counting of C. acnes microbial population was performed by plating aliquots on the agar plates and was done in triplicate. The enumeration of grown C. acnes colonies was used to determine the decrease rate of microbial population. Controls performed during this experiment were the culture medium with bacteria incubated without UV stress. The microbial population counts were expressed in cfu/mL and were the average of experiment done in triplicate. The use level of the single UV filter and combinations in the test formulations was calculated to obtain a predicted in vitro SPF value of 5.75+/−0.15 and 23.45+/−0.65, respectively (Table 2). The UV filters were mixed in the two oils, Tegosoft XC (55%) and Miglyol 829 Eco (ad100%) and the emulsifier Tween 80 (5%). The effect of selected UV irradiation conditions on the survival of microbial population of C. acnes and S. epidermidis in the presence of the tested samples 1-10 at 20% v/v, was compared with the corresponding strain in the absence of samples 1-10 and without exposure to UV irradiation (control). The results after the 4-hour incubation were compared to the population of bacteria incubated without UV stress (determination of bacterial population survival) and were expressed in percentage of survival (%). The relative percentage of protection (%) was calculated from the difference between the survival percentages of samples and vehicle control (with UV irradiation) and divided to the survival percentage of the vehicle control. Consequently, the survival of each microbial population and the relative protection by the UV filter(s) were calculated and are summarized in the Table 2.

[2] = test system: Staphylococcus epidermidis ATCC 12228; experiment: In vitro UV model, survival of S. epidermidis after UV irradiation (96-well liquid model, MPN method); type: cell-based
Experimental: Accordingly, the inventors developed a targeted in vitro liquid model in 96-well microplate format to screen for UV protective actives (“UV filters”) on bacterial survival. The effects of selected UV irradiation conditions tested on microbial population of C. acnes and the commensal reference strain of Staphylococcus epidermidis in the presence of various UV filters and combinations thereof were evaluated with the evolution of the residual microbial population after 4 h. The inhibition of bacterial growth, as consequence of UV irradiation, was compared to that of the same strain without UV irradiation and was expressed in percentage of survival (%). […] The use level of the single UV filter and combinations in the test formulations was calculated to obtain a predicted in vitro SPF value of 5.75+/−0.15 and 23.45+/−0.65, respectively (Table 2). […] The relative percentage of protection (%) was calculated from the difference between the survival percentages of samples and vehicle control (with UV irradiation) and divided to the survival percentage of the vehicle control. Consequently, the survival of each microbial population and the relative protection by the UV filter(s) were calculated and are summarized in the Table 2.

Compound | C. acnes relative protection by the UV filter(s) vs. vehicle control [1] | C. acnes survival [1] | effect on the population of C. acnes upon UV irradiation (in words) ([1]; C. acnes ATCC 11827, phylotype IA, upon UV irradiation) | effect on the commensal bacterium S. epidermidis upon UV irradiation (in words) [2]
CCCCC(CC)COC(=O)c1ccccc1O (stereo not shown) [Inv. 2, Ethylhexyl Salicylate] | (−30) % | 46% | – | –
CCCCC(CC)COc1ccc(-c2nc(-c3ccc(OC)cc3)nc(-c3ccc(OCC(CC)CCCC)cc3O)n2)c(O)c1 (stereo not shown) [Ref. 2, Bis-Ethylhexyloxyphenol Methoxyphenyl Triazine, reference compound] | (+13) % | 74% | – | –
CCCCC(CC)COC(=O)C(C#N)=C(c1ccccc1)c1ccccc1 (stereo not shown) [Inv. 1, Octocrylene] | (−15) % | 56% | reduced the population of C. acnes | maintain or even propagating the commensal bacterium S. epidermidis
CCCCC(CC)COC(=O)c1ccc(Nc2nc(Nc3ccc(C(=O)OCC(CC)CCCC)cc3)nc(Nc3ccc(C(=O)OCC(CC)CCCC)cc3)n2)cc1 (stereo not shown) [Ref. 1, Ethylhexyl Triazone, reference compound] | (+40) % | 92% | – | –
